In patent publication US20210348164A1, “ENDOGENOUS CYTOPLASMIC ALU COMPLEMENTARY DNA IN AGE-RELATED MACULAR DEGENERATION” (University of Virginia Patent Foundation, priority 2018, published 2021):
“Also recorded” adds a separate entry of the source.

Experiments:
[1] = system: Alu cDNA in primary human RPE cells; assay: Alu cDNA in primary human RPE cells (Alu c-PCR, real-time PCR, in situ hybridization, equator blotting); format: cell-based; details: primary human RPE cells; cytoplasmic fraction; Alu c-PCR
Procedure: Cell culture and transfection. Primary mouse and human RPE cells were isolated as previously described (Kerur et al., 2018). All cells were maintained at 37° C. in a 5% CO2 environment. Mouse RPE cells were cultured in DMEM supplemented with 20% FBS and penicillin/streptomycin antibiotics at standard concentrations; primary human RPE cells were maintained in DMEM supplemented with 10% FBS and antibiotics. The human RPE cell line ARPE19 was cultured as previously described (Kerur et al., 2018) and maintained in DMEM-F12 containing penicillin/streptomycin, Fungizone, and gentamicin. HEK293T cells were cultured in DMEM with 10% fetal bovine serum (FBS) with 100 U/ml penicillin/streptomycin and 2 mM L-glutamine. Primary wild-type mouse bone marrow-derived macrophages (BMDMs) were isolated, and cultured in Iscove's Modified Dulbecco's Medium (IMDM) supplemented with 30% L929 supernatant containing macrophage-stimulating factor, nonessential amino acids, sodium pyruvate, 10% FBS and antibiotics, 50 μM β-mercaptoethanol (Seo et al., 2015), and serum starved in IMDM with 1% FBS and 100 U/ml penicillin/streptomycin overnight prior to LPS stimulation. NRTIs or NNRTIs were added 30 minutes prior to LPS stimulation and again 30 minutes prior to ATP activation. LPS (100 ng/mL) was added for 3-4 hours prior to the addition of ATP. Cell lysates were collected 30 minutes after addition of ATP (5 mM). Primary human subcutaneous pre-adipocytes (Catalogue No. PCS-210-010, ATCC, Manassas, Va., United States of America) and primary human dermal fibroblasts (Catalogue No. PCS-201-012, ATCC) were grown in fibroblast basal medium with fibroblast growth kit for low serum (ATCC).
Umbilical artery vascular smooth muscle cells (Catalogue No. CC-2579, Lonza, Morristown, N.J., United States of America) were grown in SMGM™-2 Smooth Muscle Growth Medium-2 BULLETKIT™ (Lonza). Primary human skeletal myoblasts (Catalogue No. A11440, Thermo Fisher Scientific) were grown in DMEM with 2% horse serum. Primary human epidermal keratinocytes (Catalogue NO. CO215C, Thermo Fisher Scientific) were grown in EPILIFE® Medium (Thermo Fisher Scientific). Human umbilical vein endothelial cells (HUVEC) were grown in HUVEC EGM™-2 Media (Lonza). Primary human peripheral blood mononuclear cells (Catalogue NO. PCS-800-011, ATCC) were directly used without culture for experiments. RPMI 1640 medium with 10% human serum with human GM-CSF (Miltenyi Biotec Inc., Auburn, Calif., United States of America) was used as media during the experiment. Transfections were performed according to the manufacturer's instructions (LIPOFECTAMINE® 2000, Invitrogen). For transfection of primary human peripheral blood mononuclear cells, HiPerFect Transfection Reagent (Qiagen) was used as previously described (Troegeler et al., 2014). NRTIs were administered 60 minutes before transfection and added again upon replacement of media at 8 hours. To induce acid injury or osmotic stress, primary human RPE cells were treated with HCl (pH 4.0 media) or H2O for 30 minutes, 1 hour, and 2 hours at 37° C. in 5% CO2, respectively. NIH3T3 Tet-ON cells were cultured in DMEM with 10% tetracycline-free fetal bovine serum (FBS) with 100 U/ml penicillin/streptomycin. NIH3T3 Tet-ON cells were transfected with pLD401 (see Taylor et al., 2013; gift of J. D. Boeke, Institute for Systems Genetics, NYU Langone Health, New York, New York, United States of America) and human L1 ORF1p abundance was monitored after 24 hours of doxycycline induction. […]

[2] = system: Alu cDNA in ARPE-19 cells; assay: Alu cDNA in ARPE-19 cells (Alu c-PCR, in situ hybridization); format: cell-based, human; details: Alu c-PCR
Procedure: Cell culture and transfection. Primary mouse and human RPE cells were isolated as previously described (Kerur et al., 2018). All cells were maintained at 37° C. in a 5% CO2 environment. Mouse RPE cells were cultured in DMEM supplemented with 20% FBS and penicillin/streptomycin antibiotics at standard concentrations; primary human RPE cells were maintained in DMEM supplemented with 10% FBS and antibiotics. The human RPE cell line ARPE19 was cultured as previously described (Kerur et al., 2018) and maintained in DMEM-F12 containing penicillin/streptomycin, Fungizone, and gentamicin. HEK293T cells were cultured in DMEM with 10% fetal bovine serum (FBS) with 100 U/ml penicillin/streptomycin and 2 mM L-glutamine. […]
In situ hybridization. […] Visualization of fluorescein-labelled probe was performed with the TSA™ plus fluorescence system or the TSA™ plus Cy5 system (PerkinElmer). The fluorescent or Cy5 signals were detected using a Leica SP-5 or MR Nikon confocal microscope system. […]

[3] = system: reverse transcriptase; details: Fowler et al., 2014; Ambati et al., 2018; cited from earlier work
[4] = system: reverse transcriptase activity of cytoplasmic fractions of F9 cells; assay: In vitro reverse transcriptase activity of cytoplasmic fractions (Alu RNA-templated, Alu-specific qPCR); format: biochemical, mouse
Procedure: In vitro reverse transcriptase (RT) activity. In vitro reverse transcriptase (RT) activity in nuclear and cytoplasmic protein fractions was assessed using an Alu RNA-templated reaction. The RT reaction was carried out in a 20 μl reaction mix containing Alu RNA template (10 ng); Alu primer ([…]); dNTPs mix; cytoplasmic or nuclear protein, and Quantiscript RT Buffer (Qiagen). The reaction mixture was incubated at 42° C. for 30 minutes. The resulting cDNA was quantified by qPCR using Alu RNA template-specific primers. The reaction to evaluate self-priming activity of Alu RNA was carried out in the absence of priming oligos in a 20 μl reaction mix containing: Alu RNA with 3′-U tail; dNTP mix; cytoplasmic protein from mouse RPE cells; and Quantiscript RT Buffer (Qiagen) as described above. The resulting cDNA product was quantified by qPCR using Alu RNA template-specific primers. Alu RNA tailed on the 3′ end with chain terminator dideoxy thymidine base (ddTTP) was generated using TdT (New England Biolabs (NEB)) according to the manufacturer's instructions. Alu RNA tailed on the 3′ end with chain terminator cordycepin tri-phosphate was generated using PAP (NEB) according to the manufacturer's instructions.

Row | Molecule | Endogenous Alu cDNA abundance [1] | Endogenous Alu cDNA abundance [2] | inhibition of reverse transcriptase [3] | Alu cDNA formation from Alu RNA (reverse transcriptase activity) [4]
1 | Cc1cn([C@H]2C=C[C@@H](CO)O2)c(=O)[nH]c1=O [d4T, 2′,3′-didehydro-2′,3′-dideoxythymidine] | dramatically decreased Alu cDNA levels; also recorded: reduced | reduced | – | –
2 | azidothymidine triphosphate [AZT-TP] | – | – | inhibits reverse transcription | reduced Alu cDNA synthesis; also recorded: reduced Alu cDNA formation
